Reference: patent publication US9730447B2, “Fungicidal amides” (E I DU PONT DE NEMOURS AND COMPANY, priority 2013, dated 2017)
Marks after values point to notes of the source that are not given here.

How the values were obtained:
Assay type in all cases: in vivo
[1] = system: Erysiphe graminis f. sp. tritici; experiment: Test E: preventive spray on wheat seedlings, Erysiphe graminis f. sp. tritici (wheat powdery mildew), visual disease rating
In short: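 Wheat seedlings were sprayed to run-off with 40 or 10 ppm suspension (160 or 40 g ai/ha) and dusted with spores the next day. They were then kept 8 days at 20 °C. Disease was rated visually as % control relative to untreated controls (0–100).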

Botrytis cinerea = experiment: Test A: preventive spray on tomato seedlings, Botrytis cinerea (gray mold), visual disease rating
Excerpt: General protocol for preparing test suspensions for Tests A-E: the test compounds were first dissolved in acetone in an amount equal to 3% of the final volume and then suspended at the desired concentration (in ppm) in acetone and purified water (50/50 mix by volume) containing 250 ppm of the surfactant Trem® 014 (polyhydric alcohol esters). The resulting test suspensions were then used in Tests A-E. Compounds were sprayed with either a 40 ppm or 10 ppm (*) test suspension to the point of run-off on the test plants which is the equivalent of a rate of 160 g ai/ha or 40 g ai/ha, respectively.
The test suspension was sprayed to the point of run-off on tomato seedlings. The following day the seedlings were inoculated with a spore suspension of Botrytis cinerea (the causal agent of gray mold on many crops) and incubated in a saturated atmosphere at 20° C. for 48 h, and moved to a growth chamber at 27° C. for 2 days, after which time visual disease ratings were made.
Results for Tests A-E are given in Table A. In the Table, a rating of 100 indicates 100% disease control and a rating of 0 indicates no disease control (relative to the controls). A dash (-) indicates no test results.

[2] = system: Stagonospora nodorum (also known as Septoria nodorum); experiment: Test B: preventive spray on wheat seedlings, Stagonospora nodorum (wheat glume blotch), visual disease rating
In short: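 Compounds in acetone/water (50/50) with 250 ppm Trem 014 surfactant were sprayed to run-off at 40 ppm (160 g ai/ha) or 10 ppm (40 g ai/ha). Seedlings were inoculated with S. nodorum spores the next day, then held 48 h saturated at 20 °C and 6 days in a growth chamber at 20 °C. Visual rating as % disease control vs untreated.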

Septoria tritici = experiment: Test C: preventive spray on wheat seedlings, Septoria tritici (wheat leaf blotch), visual disease rating
In short: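 Wheat seedlings sprayed to run-off at 40 ppm or 10 ppm (160 or 40 g ai/ha) in acetone/water with surfactant, inoculated with Septoria tritici spores next day. Held 48 h saturated at 24 °C, then 21 days at 20 °C. Visual rating scored as % disease control relative to controls.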

[3] = system: Puccinia recondite f. sp. tritici; experiment: Test D: preventive spray on wheat seedlings, Puccinia recondite f. sp. tritici (wheat leaf rust), visual disease rating
In short: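 Wheat seedlings sprayed to run-off with 40 ppm (160 g ai/ha) or 10 ppm (40 g ai/ha) suspension in acetone/water with 250 ppm surfactant, inoculated next day with leaf rust spores. After 24 h saturated at 20 °C then 6 days at 20 °C, visual rating of disease control (0–100) relative to controls.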

[4] = 100 = 100% disease control, 0 = no control, unmarked values
[5] = 100 = 100% disease control, 0 = no control relative to controls, unmarked values
[6] = values marked with asterisk (*), meaning not given

Cn1cc(C(=O)Nc2ccccc2-c2ccc(-n3cc(-c4cccc(F)c4)cn3)nc2)c(C(F)F)n1 [compound 5]
Test E disease control rating [1, 4]: 99% | Test A disease control rating (Botrytis cinerea; [5]): 100% | Test B disease control rating [2, 4]: 100% | Test C disease control rating (Septoria tritici; [4]): 100% | Test D disease control rating [3, 4]: 100%

Cc1ccc(-c2ccc(-c3ccccc3NC(=O)c3cn(C)nc3C(F)F)cn2)o1 [compound 22]
Test E disease control rating [1, 4]: 21% | Test A disease control rating (Botrytis cinerea; [5]): 94% | Test B disease control rating [2, 4]: 0% | Test C disease control rating (Septoria tritici; [4]): 33% | Test D disease control rating [3, 4]: 100%

Cn1cc(C(=O)Nc2ccccc2-c2ccc(-n3ccc(-c4cccc(F)c4)n3)nc2)c(C(F)F)n1 [compound 87]
Test E disease control rating [1, 4]: 64% | Test A disease control rating (Botrytis cinerea; [5]): 99% | Test B disease control rating [2, 4]: 0% | Test C disease control rating (Septoria tritici; [4]): 97% | Test D disease control rating [3, 4]: 100%

Cn1cc(C(=O)Nc2ccccc2-c2cnc(-n3ccc(Cl)n3)c(F)c2)c(C(F)F)n1 [compound 73]
Test E disease control rating [1, 4]: 100% | Test A disease control rating (Botrytis cinerea; [5]): 96% | Test B disease control rating [2, 4]: 100% | Test C disease control rating (Septoria tritici; [4]): 100% | Test D disease control rating [3, 4]: 100%

Cc1cnn(-c2ccc(-c3ccccc3NC(=O)c3ncccc3Cl)cn2)c1 [compound 46]
Test E disease control rating [1, 4]: 0% | Test A disease control rating (Botrytis cinerea; [5]): 21% | Test B disease control rating [2, 4]: 0% | Test C disease control rating (Septoria tritici; [4]): 8% | Test D disease control rating [3, 4]: 97%

O=C(Nc1ccccc1-c1ccc(-n2ccc(C(F)(F)F)n2)nc1)c1ncccc1C(F)(F)F [compound 26]
Test E disease control rating [1, 4]: 100% | Test A disease control rating (Botrytis cinerea; [5]): 88% | Test B disease control rating [2, 4]: 90% | Test C disease control rating (Septoria tritici; [4]): 100% | Test D disease control rating [3, 4]: 99%

O=C(Nc1ccccc1-c1ccc(-n2cc(-c3cccc(F)c3)cn2)nc1)c1ncccc1C(F)(F)F [compound 27]
Test E disease control rating [1, 4]: 96% | Test A disease control rating (Botrytis cinerea; [5]): 89% | Test B disease control rating [2, 4]: 99% | Test C disease control rating (Septoria tritici; [4]): 100% | Test D disease control rating [3, 4]: 98%

Cc1cc(-c2ccccc2NC(=O)c2ccccc2C(F)(F)F)cnc1-n1cc(Cl)cn1 [compound 63]
Test E disease control rating [1, 4]: 72% | Test A disease control rating (Botrytis cinerea; [5]): 27% | Test B disease control rating [2, 4]: 0% | Test C disease control rating (Septoria tritici; [4]): 92% | Test D disease control rating [3, 4]: 99%

Cn1cc(C(=O)Nc2ccccc2-c2ccc(-n3ccc(-c4ccc(F)cc4)n3)nc2)c(C(F)F)n1 [compound 99]
Test E disease control rating [1, 4]: 91% | Test A disease control rating (Botrytis cinerea; [5]): 89% | Test B disease control rating [2, 4]: 0% | Test C disease control rating (Septoria tritici; [4]): 90% | Test D disease control rating [3, 4]: 100%

O=C(Nc1ccccc1-c1cnc(-n2ccc(Br)n2)c(F)c1)c1ccccc1C(F)(F)F [compound 79]
Test E disease control rating [1, 4]: 99% | Test A disease control rating (Botrytis cinerea; [5]): 25% | Test B disease control rating [2, 4]: 0% | Test C disease control rating (Septoria tritici; [4]): 100% | Test D disease control rating [3, 4]: 100%

N#Cc1cnn(-c2ncc(-c3ccccc3NC(=O)c3ncccc3C(F)(F)F)cc2F)c1 [compound 85]
Test E disease control rating [1, 4]: 0% | Test A disease control rating (Botrytis cinerea; [5]): 70% | Test B disease control rating [2, 4]: 0% | Test C disease control rating (Septoria tritici; [4]): 45% | Test D disease control rating [3, 4]: 99%

O=C(Nc1ccccc1-c1ccc(-n2ccc(C(F)(F)F)n2)nn1)c1ccccc1C(F)(F)F [compound 57]
Test E disease control rating [1, 4]: 0% | Test A disease control rating (Botrytis cinerea; [5]): 0% | Test B disease control rating [2, 4]: 0% | Test C disease control rating (Septoria tritici; [4]): 32% | Test D disease control rating [3, 4]: 100%

O=C(Nc1ccccc1-c1ccc(-n2cc(-c3ccc(F)cc3)cn2)nc1)c1ncccc1C(F)(F)F [compound 30]
Test E disease control rating [1, 4]: 69% | Test A disease control rating (Botrytis cinerea; [5]): 33% | Test B disease control rating [2, 4]: 82% | Test C disease control rating (Septoria tritici; [4]): 91% | Test D disease control rating [3, 4]: 89%

O=C(Nc1ccccc1-c1cnc(-n2cc(Cl)cn2)c(F)c1)c1ccccc1C(F)(F)F [compound 78]
Test E disease control rating [1, 4]: 97% | Test A disease control rating (Botrytis cinerea; [5]): 28% | Test B disease control rating [2, 4]: 0% | Test C disease control rating (Septoria tritici; [4]): 100% | Test D disease control rating [3, 4]: 100%

Cn1cc(C(=O)Nc2ccccc2-c2ccc(-n3cc(Br)cn3)nc2)c(C(F)F)n1 [compound 31]
Test E disease control rating [1, 4]: 99% | Test A disease control rating (Botrytis cinerea; [5]): 100% | Test B disease control rating [2, 4]: 100% | Test C disease control rating (Septoria tritici; [4]): 100% | Test D disease control rating [3, 4]: 100%

Cc1cc(-c2ccccc2NC(=O)c2ncccc2C(F)(F)F)cnc1-n1ccc(C(F)(F)F)n1 [compound 37]
Test E disease control rating [1, 4]: 100% | Test A disease control rating (Botrytis cinerea; [5]): 95% | Test B disease control rating [2, 4]: 100% | Test C disease control rating (Septoria tritici; [4]): 100% | Test D disease control rating [3, 4]: 100%

Cn1cc(C(=O)Nc2ccccc2-c2cnc(-n3ccc(C(F)(F)F)n3)c(Cl)c2)c(C(F)F)n1 [compound 35]
Test E disease control rating [1, 4]: 100% | Test A disease control rating (Botrytis cinerea; [5]): 97% | Test B disease control rating [2, 4]: 100% | Test C disease control rating (Septoria tritici; [4]): 100% | Test D disease control rating [3, 4]: 100%

Cn1cc(C(=O)Nc2ccccc2-c2ccc(-n3cc(-c4ccccc4F)cn3)nc2)c(C(F)F)n1 [compound 7]
Test E disease control rating [1, 4]: 97% | Test A disease control rating (Botrytis cinerea; [5]): 100% | Test B disease control rating [2, 4]: 100% | Test C disease control rating (Septoria tritici; [4]): 100% | Test D disease control rating [3, 4]: 100%

O=C(Nc1ccccc1-c1ccc(-n2ccc(Br)n2)nc1)c1ncccc1C(F)(F)F [compound 13]
Test E disease control rating [1, 4]: 99% | Test A disease control rating (Botrytis cinerea; [5]): 98% | Test B disease control rating [2, 4]: 98% | Test C disease control rating (Septoria tritici; [4]): 100% | Test D disease control rating [3, 4]: 100%

Cn1cc(C(=O)Nc2ccccc2-c2ccc(-n3ccc(-c4ccccc4)n3)nc2)c(C(F)F)n1 [compound 41]
Test E disease control rating [1, 4]: 84% | Test A disease control rating (Botrytis cinerea; [5]): 99% | Test B disease control rating [2, 4]: 40% | Test C disease control rating (Septoria tritici; [4]): 100% | Test D disease control rating [3, 4]: 100%

Cc1cc(-c2ccccc2NC(=O)c2ncccc2C(F)(F)F)cnc1-n1cc(Cl)cn1 [compound 64]
Test E disease control rating [1, 4]: 96% | Test A disease control rating (Botrytis cinerea; [5]): 98% | Test B disease control rating [2, 4]: 60% | Test C disease control rating (Septoria tritici; [4]): 100% | Test D disease control rating [3, 4]: 100%

O=C(Nc1ccccc1-c1cnc(-n2ccc(Cl)n2)c(F)c1)c1ncccc1C(F)(F)F [compound 69]
Test E disease control rating [1, 4]: 100% | Test A disease control rating (Botrytis cinerea; [5]): 99% | Test B disease control rating [2, 4]: 100% | Test C disease control rating (Septoria tritici; [4]): 100% | Test D disease control rating [3, 4]: 100%

Cc1cc(-c2ccccc2NC(=O)c2cn(C)nc2C(F)F)cnc1-n1cc(Cl)cn1 [compound 65]
Test E disease control rating [1, 4]: 94% | Test A disease control rating (Botrytis cinerea; [5]): 99% | Test B disease control rating [2, 4]: 97% | Test C disease control rating (Septoria tritici; [4]): 100% | Test D disease control rating [3, 4]: 100%

O=C(Nc1ccccc1-c1ccc(-n2ccc(-c3ccccc3)n2)nc1)c1ccccc1C(F)(F)F [compound 42]
Test E disease control rating [1, 4]: 21% | Test A disease control rating (Botrytis cinerea; [5]): 40% | Test B disease control rating [2, 4]: 0% | Test C disease control rating (Septoria tritici; [4]): 87% | Test D disease control rating [3, 4]: 68%

COc1ccccc1-c1cnn(-c2ccc(-c3ccccc3NC(=O)c3cn(C)nc3C(F)F)cn2)c1 [compound 8]
Test E disease control rating [1, 4]: 99% | Test A disease control rating (Botrytis cinerea; [5]): 99% | Test B disease control rating [2, 4]: 99% | Test C disease control rating (Septoria tritici; [4]): 99% | Test D disease control rating [3, 4]: 100%

COc1cc(C(F)(F)F)nn1-c1ccc(-c2ccccc2NC(=O)c2ncccc2C(F)(F)F)cn1 [compound 48]
Test E disease control rating [1, 4]: 56% | Test A disease control rating (Botrytis cinerea; [5]): 0% | Test B disease control rating [2, 4]: 0% | Test C disease control rating (Septoria tritici; [4]): 73% | Test D disease control rating [3, 4]: 0%

O=C(Nc1ccccc1-c1ccc(-n2nc(C(F)(F)F)cc2O)nc1)c1ncccc1C(F)(F)F [compound 82]
Test E disease control rating [1, 6]: 0* % | Test A disease control rating (Botrytis cinerea; [6]): 31* % | Test B disease control rating [2, 6]: 97* % | Test C disease control rating (Septoria tritici; [6]): 48* % | Test D disease control rating [3, 6]: 97* %

O=C(Nc1ccccc1-c1ccc(-n2cc(Cl)cn2)nc1)c1ncccc1Cl [compound 67]
Test E disease control rating [1, 4]: 0% | Test A disease control rating (Botrytis cinerea; [5]): 7% | Test B disease control rating [2, 4]: 0% | Test C disease control rating (Septoria tritici; [4]): 62% | Test D disease control rating [3, 4]: 90%
